Data set [1] in a line: Dissolution in ethanol (check for ferric hydroxide in ferric trimaltol). Particulars: for dissolution of ferric trimaltol powder in ethanol: powders produced as per Examples 1 and 2 dissolved in ethanol, complete dissolution confirms absence of iron hydroxides. As to the method: As such ferric trimaltol powders produced as per Examples 1 and 2 were dissolved in ethanol.

The conditions of data set [2]: in vivo; cited from earlier work.
In the next data set the test system is IBD patients. Particulars: in vivo; cited from earlier work.

Turning to `Cc1occc(=O)c1[O-].Cc1occc(=O)c1[O-].Cc1occc(=O)c1[O-].[Fe+3]` [Example 1], the “dissolution of ferric trimaltol powder in ethanol” value in data set [1] is listed as “did not”.

`Cc1occc(=O)c1[O-].Cc1occc(=O)c1[O-].Cc1occc(=O)c1[O-].[Fe+3]` [Example 2]: the “dissolution of ferric trimaltol powder in ethanol” value in data set [1] was “dissolved completely”.

For the molecule `Cc1occc(=O)c1[O-].Cc1occc(=O)c1[O-].Cc1occc(=O)c1[O-].[Fe+3]` [Ferric trimaltol, ferric trimaltol], the absorption result in data set [2] is “well absorbed”. Moreover, the solubility in ethanol result in data set [1] is reported as “soluble in ethanol”. Besides, the tolerability entry in the data set with IBD patients is “well tolerated”.

The record behind these values is US11267836B2, “Methods for producing ferric maltol compositions from ligand modified and ligand coated ferric hydroxides” (Shield TX (UK) Limited, priority 2016, dated 2022).
